From US11591365B2, “BCL9 peptides and variants thereof” (WntRx Pharmaceuticals Inc., priority 2017, dated 2023)
Where a SMILES comes first, the peptide text is derived from it. Bridges are numbered along the chain shown (N, C = ends). [ ]: non-standard residue; d: D form. 2Nal = N[C@@H](Cc1ccc2ccccc2c1)C(=O)O; NMeE = CN[C@@H](CCC(=O)O)C(=O)O; NMeQ = CN[C@@H](CCC(N)=O)C(=O)O; Cha = N[C@@H](CC1CCCCC1)C(=O)O; NMeD = CN[C@@H](CC(=O)O)C(=O)O; dCha = N[C@H](CC1CCCCC1)C(=O)O; Cba = N[C@@H](CC1CCC1)C(=O)O; Tle = CC(C)(C)[C@H](N)C(=O)O; S5 = C=CCCC[C@](C)(N)C(=O)O; βAla = NCCC(=O)O

tested on: Colo320DM; assay: Colo320DM cell viability; type: cell-based, human
Text: In some embodiments, a polypeptide described herein inhibits binding of BLC9 to β-catenin when assessed in a cell-viability assay. In some embodiments, the cell-viability assay is a CellTiterGlo luminescent assay, wherein the viability of cells is quantitatively measured. Various cell lines, transformed cell lines or primary cells derived from a healthy subject or subject suffering from a disease can be used in this assay.

**Q.** How did the IC50 turn out when CCCCCCCCCCCCCCCC(=O)NCCOCCOCCOCCOCCC(=O)NCCCC[C@H](NC(=O)[C@H](Cc1ccc2ccccc2c1)NC(=O)[C@H](CC1CCC1)NC(=O)[C@]1(C)CCCC=CCCC[C@](C)(NC(=O)[C@H](CCCNC(=N)N)NC(=O)[C@H](CC(C)C)NC(=O)[C@@H](NC(=O)[C@H](CCC(N)=O)NC(=O)[C@H](CC(C)C)NC(=O)[C@H](CO)NC(=O)[C@H](CCCNC(=N)N)NC(=O)[C@H](CCC(N)=O)NC(=O)[C@H](CCCNC(=N)N)NC(=O)[C@H](Cc2c[nH]cn2)NC(C)=O)[C@@H](C)O)C(=O)N[C@@H]([C@@H](C)CC)C(=O)N[C@@H](CCC(N)=O)C(=O)N[C@@H](CCCNC(=N)N)C(=O)N1)C(N)=O [SEQ ID NO: 161, HRQRSLQTLRXIQRX(CBA)(2-Nal)] was run?
**A.** 3350 nM

**Q.** CC[C@H](C)[C@@H]1NC(=O)[C@@](C)(NC(=O)[C@H](CCCNC(=N)N)NC(=O)[C@H](CC(C)C)NC(=O)[C@]2(C)CCCC=CCCC[C@](C)(NC(=O)[C@H](CCC(=O)O)NC(=O)[C@H](CCCNC(=N)N)NC(=O)[C@@H](N)Cc3c[nH]cn3)C(=O)N[C@@H](CO)C(=O)N[C@@H](CC(C)C)C(=O)N[C@@H](CCC(N)=O)C(=O)N2)CCCC=CCCC[C@@](C)(C(=O)N[C@@H](CC2CCC2)C(=O)N[C@@H](Cc2ccc3ccccc3c2)C(=O)O)NC(=O)[C@H](CCCNC(=N)N)NC(=O)[C@H](CCC(N)=O)NC1=O [SEQ ID NO: 82, HREXSLQXLRZIQRZ(CBA)(2-Nal)] (H-HRE[S5]SLQ[S5]LR[S5]IQR[S5][Cba][2Nal]-OH; staple 4-8, 11-15) was tested. Which IC50 did it give?
**A.** > 5000 nM

**Q.** For CC[C@H](C)[C@@H]1NC(=O)[C@@](C)(NC(=O)[C@H](CCCNC(=N)N)NC(=O)[C@H](CC(C)C)NC(=O)[C@@H](NC(=O)[C@H](CCC(N)=O)N(C)C(=O)[C@@H](CC2CCCCC2)NC(=O)[C@H](CO)NC(=O)[C@H](CCCNC(=N)N)NC(=O)[C@H](CCC(N)=O)NC(=O)[C@H](CCCNC(=N)N)NC(=O)[C@H](Cc2c[nH]cn2)NC(C)=O)[C@@H](C)O)CCCC=CCCC[C@@](C)(C(=O)N[C@@H](CC2CCCCC2)C(=O)N[C@@H](Cc2ccc3ccccc3c2)C(N)=O)NC(=O)[C@H](CCCNC(=N)N)NC(=O)[C@H](CCC(N)=O)NC1=O [SEQ ID NO: 187, HRQRSD(Cha)(N-MeGln)TLRXIQRX(Cha)(2-Nal)] (Ac-HRQRS[dCha][NMeQ]TLR[S5]IQR[S5][Cha][2Nal]-NH2; staple 11-15; N-terminus and C-terminus assumed), which IC50 is on record?
**A.** 2180 nM

**Q.** With CC[C@H](C)[C@@H]1NC(=O)[C@@](C)(NC(=O)[C@H](CCCNC(=N)N)NC(=O)[C@H](CC(C)C)NC(=O)[C@]2(C)CCCC=CCCC[C@](C)(NC(=O)[C@H](CCC(=O)O)NC(=O)[C@H](CCCNC(=N)N)NC(C)=O)C(=O)N[C@@H](CO)C(=O)N[C@@H](CC(C)C)C(=O)N[C@@H](CCC(N)=O)C(=O)N2)CCCC=CCCC[C@@](C)(C(=O)N[C@@H](CC(C)C)C(=O)N[C@@H](Cc2ccc3ccccc3c2)C(=O)NCCC(=O)NCCC(N)=O)NC(=O)[C@H](CCCNC(=N)N)NC(=O)[C@H](CCC(N)=O)NC1=O [SEQ ID NO: 40, REXSLQXLRZIQRZL(2-Nal)(β-Ala)(β-Ala)] (Ac-RE[S5]SLQ[S5]LR[S5]IQR[S5]L[2Nal][βAla][βAla]-NH2; staple 3-7, 10-14) as the compound, how does the IC50 read?
**A.** 830 nM

**Q.** Which IC50 does the source give for CC[C@H](C)[C@@H]1NC(=O)[C@@](C)(NC(=O)[C@H](CCCNC(=N)N)NC(=O)[C@H](CC(C)C)NC(=O)[C@@H](NC(=O)[C@H](CCC(N)=O)NC(=O)[C@H](CC(C)C)NC(=O)[C@H](CO)NC(=O)[C@H](CCCNC(=N)N)NC(=O)[C@H](CCC(=O)O)N(C)C(=O)[C@H](CCCNC(=N)N)NC(=O)[C@H](Cc2c[nH]cn2)NC(C)=O)[C@@H](C)O)CCCC=CCCC[C@@](C)(C(=O)N[C@@H](CC2CCC2)C(=O)N[C@@H](Cc2ccc3ccccc3c2)C(N)=O)NC(=O)[C@H](CCCNC(=N)N)NC(=O)[C@H](CCC(N)=O)NC1=O [SEQ ID NO: 151, HR(N-methylE)RSLQTLRXIQRX(CBA)(2-Nal)] (Ac-HR[NMeE]RSLQTLR[S5]IQR[S5][Cba][2Nal]-NH2; staple 11-15) here?
**A.** 3100 nM

**Q.** For CC[C@H](C)[C@@H]1NC(=O)[C@@](C)(NC(=O)[C@H](CCCNC(=N)N)NC(=O)[C@H](CC(C)C)NC(=O)[C@@H](NC(=O)[C@H](CCC(N)=O)NC(=O)[C@H](CC2CCC2)NC(=O)[C@H](CO)NC(=O)[C@H](CCCNC(=N)N)NC(=O)[C@H](CCC(N)=O)NC(=O)[C@H](CCCNC(=N)N)NC(=O)[C@H](Cc2c[nH]cn2)NC(C)=O)[C@@H](C)O)CCCC=CCCC[C@@](C)(C(=O)N[C@@H](CC2CCC2)C(=O)N[C@@H](Cc2ccc3ccccc3c2)C(N)=O)NC(=O)[C@H](CCCNC(=N)N)NC(=O)[C@H](CCC(N)=O)NC1=O [SEQ ID NO: 156, HRQRS(CBA)QTLRXIQRX(CBA)(2-Nal)] (Ac-HRQRS[Cba]QTLR[S5]IQR[S5][Cba][2Nal]-NH2; staple 11-15), which IC50 is on record?
**A.** 2630 nM

**Q.** CC[C@H](C)[C@@H]1NC(=O)[C@@](C)(NC(=O)[C@H](CCCNC(=N)N)NC(=O)[C@H](CC(C)C)NC(=O)[C@@H](NC(=O)[C@H](CCC(N)=O)NC(=O)[C@H](CC(C)C)NC(=O)[C@@H](NC(=O)[C@H](CCCNC(=N)N)NC(=O)[C@H](CCC(N)=O)NC(=O)[C@H](CCCNC(=N)N)NC(=O)[C@H](Cc2c[nH]cn2)NC(C)=O)[C@@H](C)O)[C@@H](C)O)CCCC=CCCC[C@@](C)(C(=O)N[C@@H](CC2CCC2)C(=O)N[C@@H](Cc2ccc3ccccc3c2)C(N)=O)NC(=O)[C@H](CCCNC(=N)N)NC(=O)[C@H](CCC(N)=O)NC1=O [SEQ ID NO: 159, HRQRTLQTLRXIQRX(CBA)(2-Nal)] (Ac-HRQRTLQTLR[S5]IQR[S5][Cba][2Nal]-NH2; staple 11-15) was tested. Which IC50 did it give?
**A.** 2480 nM

**Q.** For CC[C@H](C)[C@@H]1NC(=O)[C@@](C)(NC(=O)[C@H](CCCNC(=N)N)NC(=O)[C@H](CC(C)C)NC(=O)[C@@H](NC(=O)[C@H](CCC(N)=O)N(C)C(=O)[C@H](CC(C)C)NC(=O)[C@H](CO)NC(=O)[C@H](CCCNC(=N)N)NC(=O)[C@H](CCC(N)=O)NC(=O)[C@H](CCCNC(=N)N)NC(=O)[C@H](Cc2c[nH]cn2)NC(C)=O)[C@@H](C)O)CCCC=CCCC[C@@](C)(C(=O)N[C@@H](CC2CCC2)C(=O)N[C@@H](Cc2ccc3ccccc3c2)C(N)=O)NC(=O)[C@H](CCCNC(=N)N)NC(=O)[C@H](CCC(N)=O)NC1=O [SEQ ID NO: 153, HRQRSL(N-methylQ)TLRXIQRX(CBA)(2-Nal)] (Ac-HRQRSL[NMeQ]TLR[S5]IQR[S5][Cba][2Nal]-NH2; staple 11-15; N-terminus and C-terminus assumed), which IC50 is on record?
**A.** 2560 nM

**Q.** With CC[C@H](C)[C@@H]1NC(=O)[C@@](C)(NC(=O)[C@H](CCCNC(=N)N)NC(=O)[C@H](CC(C)C)NC(=O)[C@@H](NC(=O)[C@H](CCC(N)=O)NC(=O)[C@H](CC(C)C)NC(=O)[C@H](CO)NC(=O)[C@H](CCCNC(=N)N)NC(=O)[C@H](CCC(=O)O)NC(=O)[C@H](CCCNC(=N)N)NC(=O)[C@H](Cc2c[nH]cn2)NC(C)=O)[C@@H](C)O)CCCC=CCCC[C@@](C)(C(=O)N[C@@H](CC2CCC2)C(=O)N[C@@H](Cc2ccc3ccccc3c2)C(N)=O)NC(=O)[C@H](CCC(N)=O)NC(=O)[C@H](CCC(N)=O)NC1=O [SEQ ID NO: 145, HRERSLQTLRXIQQX(CBA)(2-Nal)] (Ac-HRERSLQTLR[S5]IQQ[S5][Cba][2Nal]-NH2; staple 11-15) as the compound, how does the IC50 read?
**A.** > 5000 nM

**Q.** For CC[C@H](C)[C@@H]1NC(=O)[C@@](C)(NC(=O)[C@H](CCCNC(=N)N)NC(=O)[C@H](CC(C)C)NC(=O)[C@@H](NC(=O)[C@H](CCC(N)=O)NC(=O)[C@H](CC(C)C)NC(=O)[C@H](CO)NC(=O)[C@H](CCCNC(=N)N)NC(=O)[C@H](CCC(N)=O)NC(=O)[C@H](CCCNC(=N)N)NC(=O)[C@H](Cc2c[nH]cn2)NC(C)=O)[C@@H](C)O)CCCC=CCCC[C@@](C)(C(=O)N[C@H](C(=O)N[C@@H](Cc2ccc3ccccc3c2)C(N)=O)C(C)(C)C)NC(=O)[C@H](CCCNC(=N)N)NC(=O)[C@H](CCC(N)=O)NC1=O [SEQ ID NO: 192, HRQRSLQTLRXIQRX(Tle)(2-Nal)] (Ac-HRQRSLQTLR[S5]IQR[S5][Tle][2Nal]-NH2; staple 11-15), which IC50 is on record?
**A.** 2590 nM

**Q.** How did the IC50 turn out when CC[C@H](C)[C@@H]1NC(=O)[C@@](C)(NC(=O)[C@H](CCCNC(=N)N)NC(=O)[C@H](CC(C)C)NC(=O)[C@@H](NC(=O)[C@H](CCC(N)=O)NC(=O)[C@H](CC(C)C)NC(=O)[C@H](CO)NC(=O)[C@H](CCCNC(=N)N)NC(=O)[C@H](CC(=O)O)N(C)C(=O)[C@H](CCCNC(=N)N)NC(=O)[C@H](Cc2c[nH]cn2)NC(C)=O)[C@@H](C)O)CCCC=CCCC[C@@](C)(C(=O)N[C@@H](CC2CCC2)C(=O)N[C@@H](Cc2ccc3ccccc3c2)C(N)=O)NC(=O)[C@H](CCCNC(=N)N)NC(=O)[C@H](CCC(N)=O)NC1=O [SEQ ID NO: 157, HR(N-methylD)RSLQTLRXIQRX(CBA)(2-Nal)] (Ac-HR[NMeD]RSLQTLR[S5]IQR[S5][Cba][2Nal]-NH2; staple 11-15) was run?
**A.** 3170 nM

**Q.** For CC[C@H](C)[C@@H]1NC(=O)[C@@](C)(NC(=O)[C@H](CCCNC(=N)N)NC(=O)[C@H](CC(C)C)NC(=O)[C@@H](NC(=O)[C@H](CCC(N)=O)NC(=O)[C@H](CC(C)C)NC(=O)[C@H](CO)NC(=O)[C@H](CCCNC(=N)N)NC(=O)[C@H](CCC(=O)O)NC(=O)[C@H](CCCNC(=N)N)NC(=O)[C@H](Cc2c[nH]cn2)NC(=O)[C@H](CCC(=O)O)NC(=O)[C@H](CC(C)C)NC(=O)[C@H](CCC(N)=O)NC(C)=O)[C@@H](C)O)CCCC=CCCC[C@@](C)(C(=O)N[C@@H](CC(C)C)C(=O)N[C@@H](Cc2ccc3ccccc3c2)C(N)=O)NC(=O)[C@H](CCCNC(=N)N)NC(=O)[C@H](CCC(N)=O)NC1=O [SEQ ID NO: 8, QLEHRERSLQTLRXIQRXL(2-Nal)] (Ac-QLEHRERSLQTLR[S5]IQR[S5]L[2Nal]-NH2; staple 14-18), which IC50 is on record?
**A.** 6300 nM

**Q.** CC[C@H](C)[C@@H]1NC(=O)[C@@](C)(NC(=O)[C@H](CCCNC(=N)N)NC(=O)[C@H](CC(C)C)NC(=O)[C@@H](NC(=O)[C@]2(C)CCCC=CCCC[C@](C)(NC(=O)[C@H](CCCNC(=N)N)NC(=O)[C@H](Cc3c[nH]cn3)NC(C)=O)C(=O)N[C@@H](CCCNC(=N)N)C(=O)N[C@@H](CO)C(=O)N[C@@H](CC(C)C)C(=O)N2)[C@@H](C)O)CCCC=CCCC[C@@](C)(C(=O)N[C@@H](CC2CCC2)C(=O)N[C@@H](Cc2ccc3ccccc3c2)C(N)=O)NC(=O)[C@H](CCCNC(=N)N)NC(=O)[C@H](CCC(N)=O)NC1=O [SEQ ID NO: 94, HRXRSLXTLRZIQRZ(CBA)(2-Nal)] (Ac-HR[S5]RSL[S5]TLR[S5]IQR[S5][Cba][2Nal]-NH2; staple 3-7, 11-15) was tested. Which IC50 did it give?
**A.** 3340 nM
